The text below walks through data of US11975051B1, “Therapeutic peptides and uses thereof” (priority 2022, dated 2024).

Like-named read-outs stand apart in the source and are kept apart here. Where no end group is shown, it is not given here. [ ]: non-standard residue; d: D form. A value given as a limit tells only on which side of the number the result lay.

Data set [1] deals with IL-6. The experiment in a line: IL-6 lowering in ConA stimulated peripheral blood mononuclear cells. The data set is classed as cell-based, human. The conditions noted are these: 5 μg/mL ConA 72 hours, N=3. From the text:
(§1) The influence of proinflammatory cytokines on the immunoregulatory function of immune cells from healthy donors may be assessed using mitogen-stimulated PBMC responses, which can be measured by determining the effect of test compounds on cytokine levels after stimulation by Concanavilin A (“ConA”). See Arneth, CURRENT PROTOCOLS IN CYTOMETRY 6.28 supplement 51 (2010); A. Erhardt et al., Immunology and Liver Disease Karger (2010); W. Ge et al., INTERNATIONAL IMMUNOPHARMACOLOGY 85 (2020); S. Malchow et al., BICHIMICA ET BIOPHYSICA ACTA 1812:290-301 (2011); A. Thomazelli et al., IMMUNOPHARMACOLOGY AND IMMUNOTOXICOLOGY, 40:5:387-392 (2018); N. Umeda et al., LEUKOCYTE BIOLOGY 791-801 (2019); H. Wang et al., WORLD JOURNAL OF GASTROENTEROLOGY 119-125 (2012).
(§2) Normal human PBMCs were stimulated with 5 μg/mL ConA for 72 hours followed by treatment with test compound, each of which are set forth in Table 6, at either 4.15 μM or 41.5 μM. Data represents mean of either TNFα or interleukin IL-6 lowering after ConA stimulation±SD. 2-way ANOVA with Dunnet's multiple comparison test; * p<0.05 (represented as +); ** p<0.01 (represented as ++); *** p<0.001 **** (represented as +++); p<0.0001 (represented as ++++); N=3 replicates. Both TNFα and IL-6 are inflammatory cytokines for which the lowering would be expected to provide therapeutic benefit for a variety of diseases. For example, TNFα is implicated in the inflammation associated with neurodegenerative and inflammatory disorders (see, e.g., G. D. Kalliolias et al., TNF biology, pathogenic mechanisms and emerging therapeutic strategies, 12(1) NATURE REVIEWS RHEUMATOLOGY 49-62 (2016)) as is […] (see, e.g., S. Kaur et al., A panoramic review of IL-6: Structure, pathophysiological roles and inhibitors, 28(5) BIOORG. MED. CHEM. 115327 (2020)).

The test system of data set [2] is TNFα. The experiment in a line: TNFα lowering in ConA stimulated peripheral blood mononuclear cells. Type of data set: cell-based, human. As to conditions: 5 μg/mL ConA 72 hours, N=3.
Description: as §1, §2

Data set [3] concerns ALS patient-derived ASCs. Nature of the data set: Stressed ALS patient-derived ASCs treated with peptides, SeaHorse analytics (Example 6). The conditions noted are these: tested at 0.5 and/or 5 mM (TP-5 0.01-100 mM), DMSO/H2O. The data set is classed as cell-based, human. An excerpt: ALS patient-derived ASCs showing hypermetabolism and lipid sequestration were stressed and treated with peptides (shown below, column 2) and effect of the peptide measured with SeaHorse analytics.

For data set [4], the system named is patients with ALS. As to conditions: cited from earlier work.
The test system of data set [5] is SOD1^G93A model. The experiment in a line: Thymalfasin in the SOD1^G93A ALS mouse model. The data set is classed as in vivo. From the text: (§3) In mice, thymalfasin is metabolized to the active molecule thymopentin. Because mice process the pro-molecule thymalfasin into thymopentin as do humans, thymalfasin may illuminate the effects of thymopentin by increasing target engagement afforded by the pro-molecule.

For data set [6], the system named is TDP43 model. Nature of the data set: Thymalfasin in the TDP43 (Prp-TDP43^A315T) ALS mouse model. The data set is classed as in vivo.
Description: as §3

Data set [7] deals with ALS patients. The conditions noted are these: cited from earlier work.
Data set [8] in a line: Mouse plasma stability. The conditions noted are these: read-out: Mouse Plasma Stability t½. Type of data set: in vitro ADME.
For data set [9] the following is noted: in vivo; cited from earlier work.
Data set [10] deals with renal dialysis patients. The conditions noted are these: cited from earlier work.
Data set [11] is described as follows: Mouse (liver) microsomal stability. Type of data set: in vitro ADME. As to conditions: mouse, liver microsomes. (Microsomes from liver hold many membrane-bound enzymes, among them those of drug oxidation.)
The nature of data set [12]: Pharmacokinetics in mice dosed IV, SC and PO. The data set is classed as in vivo, mouse. As to conditions: mouse, in vivo, mice.
The conditions of data set [13]: also when given with other drugs; cited from earlier work.

For 1 (RKDVY) [Compound 1], the “IL-6 lowering after ConA stimulation (significance)” value (“IL-6 lowering … (significance)” below) in [1] (4.15 μM test compound) is “+ (* p<0.05 (represented as +))”; in [1] (41.5 μM test compound), “+++ (*** p<0.001 **** (represented as +++))”. Further, the entries for the “TNFα lowering after ConA stimulation (significance)” value (from here on “TNFα lowering … (significance)”) in [2] (4.15 μM test compound) and in data set [2] (41.5 μM test compound) were “+++ (*** p<0.001 **** (represented as +++))” and “++++ (p<0.0001 (represented as ++++))”, respectively. Also, the “Conc. with positive effect” value in [3] was “none”.

With `Nc1nc2ccc(OC(F)(F)F)cc2s1` [Riluzole], in [4], the extension of life entry is listed as “several months”.

Regarding “Arg-Lys-Asp-Val-Tyr-NHMe (RKDVY-NHMe) [Compound 4]”, the “IL-6 lowering … (significance)” value is given as “+ (* p<0.05 (represented as +))” in [1] (4.15 μM test compound) and “++ (** p<0.01 (represented as ++))” in [1] (41.5 μM test compound). For the same compound, the “TNFα lowering … (significance)” value is “++ (** p<0.01 (represented as ++))” in [2] (4.15 μM test compound) and “+++ (*** p<0.001 **** (represented as +++))” in [2] (41.5 μM test compound). Moreover, the “Conc. with positive effect” value in [3] is given as “none”.

As for “8 (Ac-[dY][dV][dD][dK][dR]-NH2) [Compound 8]”, the “Conc. with positive effect” value in data set [3] came out at 5 mM.

Consider “thymalfasin: thymosin α (Tα1), 28 amino acids, commercially available as ZADAXIN; pro-molecule metabolized to thymopentin (Ac-SDAAVDTSSEITTKDLKEKKEVVEEAEN; UniProt P06454 2-29, looked up)”, for which, in data set [5], the “ubiquitin in brain tissue and spinal cord on histopathology” value was “statistically-significant reduction”. For the same compound, in [6] (TDP-43 mouse model), the “growth and strength (based on wire hang tests)” value was “improvement”. Besides, the disease phenotype entry in data set [6] (TDP-43 mouse model, one cohort) is recorded as “prevented in one cohort”. The “Iba1 and brain GFAP, measures of inflammation” value in [6] (treated mice) is recorded as “Statistically-significant reduction”.

Take `CC1=NN(c2ccccc2)C(=O)C1` [Edavarone]: the “slowing of the progression of disease” value in data set [7] is 33%.

Turning to “RKDVY [TP-5, Arg-Lys-Asp-Val-Tyr, reference compound]”, the half-life in [8] was 23.1 min; in data set [11] (mouse liver microsomes, read-out: stability in mouse liver microsomes, half-life) it was 23.1 min; in data set [11] (mouse microsomes, read-out: Mouse Microsomal Stability t½) it was above 60 min; in data set [12] (IV, read-out: IV t½, mice), 5.58 min; in data set [12] (PO, read-out: PO t½, mice), 7.72 min; in data set [12] (SC, read-out: SC t½, mice), 8.92 min. Moreover, the “half-life of exogenous thymopentin” value in data set [9] is on record as “seconds”. In addition, the “IL-6, IL-8, TNF and CRP” value in data set [10] is reported as “reduced”. Further, the “superoxide dismutase (SOD), state of oxidative stress” value in data set [10] is given as “increasing”. Also, the bioavailability in [12] (PO, read-out: PO % F, mice) amounted to 36%; in data set [12] (SC, read-out: SC % F, mice), 39%. Also, the AUC(0-inf) turned out to be 1270 ng·h/mL in data set [12] (PO, read-out: PO AUCinf) and 126 ng·h/mL in data set [12] (SC, read-out: SC AUCinf). In addition, the Cmax turned out to be 1370 ng/mL in data set [12] (PO, read-out: PO Cmax) and 133 ng/mL in data set [12] (SC, read-out: SC Cmax). Further, in [13], the safety / tolerability entry is listed as “well tolerated”.

With “6 (Ac-[dY][dV][dD][dK][dR]-NHMe) [Compound 6]”, the “IL-6 lowering … (significance)” value in data set [1] (4.15 μM test compound) is “+ (* p<0.05 (represented as +))”; in data set [1] (41.5 μM test compound), “++++ (p<0.0001 (represented as ++++))”. In addition, the “TNFα lowering … (significance)” value in data set [2] (4.15 μM test compound) and in data set [2] (41.5 μM test compound) was “++++ (p<0.0001 (represented as ++++))” each time. Moreover, the “Conc. with positive effect” value in data set [3] is reported as 5 mM.

For “D-Tyr-D-Val-D-Asp-D-Lys-D-Arg-NH2 ([dY][dV][dD][dK][dR]-NH2) [Compound 7]”, the “Conc. with positive effect” value in [3] was determined as 0.5 mM.

With “Ac-Arg-Lys-Asp-Val-Tyr-NH2 (Ac-RKDVY-NH2) [Compound 3]”, in data set [1] (41.5 μM test compound), the “IL-6 lowering … (significance)” value is on record as “+++ (*** p<0.001 **** (represented as +++))”. Besides, the “TNFα lowering … (significance)” value in [2] (4.15 μM test compound) was “+ (* p<0.05 (represented as +))”; in data set [2] (41.5 μM test compound), “++ (** p<0.01 (represented as ++))”. For the same compound, the “Conc. with positive effect” value in data set [3] is “none”.

In the case of “Ac-Arg-Lys-Asp-Val-Tyr-NHMe (Ac-RKDVY-NHMe; SMILES CNC(=O)[C@H](Cc1ccc(O)cc1)NC(=O)[C@@H](NC(=O)[C@H](CC(=O)O)NC(=O)[C@H](CCCCN)NC(=O)[C@H](CCCNC(=N)N)NC(C)=O)C(C)C) [Compound 5]”, the “IL-6 lowering … (significance)” value is given as “+ (* p<0.05 (represented as +))” in data set [1] (4.15 μM test compound) and “++ (** p<0.01 (represented as ++))” in data set [1] (41.5 μM test compound). Moreover, in data set [2] (41.5 μM test compound), the “TNFα lowering … (significance)” value is “+ (* p<0.05 (represented as +))”. In data set [3], the “Conc. with positive effect” value is “none”.

As to “Arg-Lys-Asp-Val-Tyr-NH2 (RKDVY-NH2) [Compound 2]”, the “IL-6 lowering … (significance)” value in [1] (4.15 μM test compound) is given as “++ (** p<0.01 (represented as ++))”; in [1] (41.5 μM test compound) it was “+++ (*** p<0.001 **** (represented as +++))”. In addition, the “TNFα lowering … (significance)” value in [2] (4.15 μM test compound) and in [2] (41.5 μM test compound) was “++ (** p<0.01 (represented as ++))” throughout. Moreover, in data set [3], the “Conc. with positive effect” value is on record as “none”.

In general, Cmax refers to the peak of the concentration-time curve.
